Data taken from patent US20240262826A1, “WILD TYPE KIT INHIBITORS” (Blueprint Medicines Corporation, priority 2022, published 2024).

Biological target: wild type c-kit (Homo sapiens (Human), UniProt P10721)
Test: PathScan phospho c-kit (Tyr719) sandwich ELISA in SCF-stimulated M-07e cells (pKIT assay)
Type: cell-based
Conditions: ELISA assay (values not marked *)
Outline: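 Tyr719-phosphorylated c-kit was measured by colorimetric (TMB) sandwich ELISA in lysates of M-07e cells. Cells were starved 4 h without serum or GM-CSF, dosed 60 min at 37 °C with compound (8 points, duplicate, 0.25% DMSO), and stimulated 10 min with human SCF (500 ng/mL as added). IC50 values came from 4-parameter logistic regression.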

wild type c-kit, sequence (P10721 26-976): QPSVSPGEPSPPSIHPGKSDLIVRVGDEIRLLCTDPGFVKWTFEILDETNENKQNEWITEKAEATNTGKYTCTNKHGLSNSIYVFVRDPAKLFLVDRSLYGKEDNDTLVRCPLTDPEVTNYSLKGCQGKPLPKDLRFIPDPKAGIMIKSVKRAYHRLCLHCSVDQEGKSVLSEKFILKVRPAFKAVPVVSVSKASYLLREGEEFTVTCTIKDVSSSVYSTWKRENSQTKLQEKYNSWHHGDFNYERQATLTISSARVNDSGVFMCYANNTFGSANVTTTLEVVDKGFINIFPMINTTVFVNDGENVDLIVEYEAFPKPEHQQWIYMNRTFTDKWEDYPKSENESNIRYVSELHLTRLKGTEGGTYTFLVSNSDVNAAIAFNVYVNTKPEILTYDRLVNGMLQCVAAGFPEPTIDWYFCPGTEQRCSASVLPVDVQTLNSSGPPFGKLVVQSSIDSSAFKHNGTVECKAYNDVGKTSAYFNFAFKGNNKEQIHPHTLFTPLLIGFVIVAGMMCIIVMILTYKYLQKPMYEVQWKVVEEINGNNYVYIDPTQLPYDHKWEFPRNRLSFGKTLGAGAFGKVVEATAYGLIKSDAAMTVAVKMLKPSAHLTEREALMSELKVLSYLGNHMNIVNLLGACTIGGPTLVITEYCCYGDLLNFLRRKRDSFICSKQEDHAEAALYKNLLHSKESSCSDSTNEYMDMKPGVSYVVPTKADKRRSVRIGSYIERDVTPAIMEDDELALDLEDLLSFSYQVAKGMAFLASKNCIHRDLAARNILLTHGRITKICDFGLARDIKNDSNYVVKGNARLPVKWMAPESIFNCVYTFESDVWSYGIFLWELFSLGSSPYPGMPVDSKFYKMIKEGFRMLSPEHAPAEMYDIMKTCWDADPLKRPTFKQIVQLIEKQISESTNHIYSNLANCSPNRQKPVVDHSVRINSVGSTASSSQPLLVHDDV

Row | SMILES | IC50 [nM]
1 | Cc1ccc(-c2nnn(C)n2)cc1NC(=O)c1cnn2cc(-c3cnn(CC(C)(C)O)c3)cc(F)c12 [Example 214, 4-fluoro-6-(1-(2-hydroxy-2-methylpropyl)-1H-pyrazol-4-yl)-N-(2-methyl-5-(2-methyl-2H-tetrazol-5-yl)phenyl)pyrazolo[1,5-a]pyridine-3-carboxamide] | 2.7
2 | CCNc1ccn2ncc(C(=O)Nc3cc(-c4nnn(C5CN(C(=O)OC)C5)n4)ccc3C)c2c1 [Example 127, methyl 3-(5-(3-(5-(ethylamino)pyrazolo[1,5-a]pyridine-3-carboxamido)-4-methylphenyl)-2H-tetrazol-2-yl)azetidine-1-carboxylate] | 30.2
3 | COCCNc1ccn2ncc(C(=O)Nc3cc(-c4nnn(C5CN(C(=O)OC)C5)n4)ccc3C)c2c1C [Example 45, methyl 3-(5-(3-(5-((2-methoxyethyl)amino)-4-methylpyrazolo[1,5-a]pyridine-3-carboxamido)-4-methylphenyl)-2H-tetrazol-2-yl)azetidine-1-carboxylate] | 70.2
4 | CCNc1ccn2ncc(C(=O)Nc3cc(-c4nnn(C5CN(C(=O)OCC)C5)n4)ccc3C)c2c1 [Example 130, ethyl 3-(5-(3-(5-(ethylamino)pyrazolo[1,5-a]pyridine-3-carboxamido)-4-methylphenyl)-2H-tetrazol-2-yl)azetidine-1-carboxylate] | 34.7
5 | COC(=O)N1CC(n2nnc(-c3ccc(C)c(NC(=O)c4cnn5ccc(N6CCC(F)(F)CC6)cc45)c3)n2)C1 [Example 147, methyl 3-(5-(3-(5-(4,4-difluoropiperidin-1-yl)pyrazolo[1,5-a]pyridine-3-carboxamido)-4-methylphenyl)-2H-tetrazol-2-yl)azetidine-1-carboxylate] | 31.6
6 | COC[C@@H](O)Cn1ncc(-c2ccn3ncc(C(=O)Nc4cc(-c5nnn(C6CC6)n5)c(C)cc4Cl)c3c2)c1C [Example 262, (S)-N-(2-chloro-5-(2-cyclopropyl-2H-tetrazol-5-yl)-4-methylphenyl)-5-(1-(2-hydroxy-3-methoxypropyl)-5-methyl-1H-pyrazol-4-yl)pyrazolo[1,5-a]pyridine-3-carboxamide] | 1.1
7 | Cc1ccc(-c2nnn(C3CN(S(=O)(=O)CCCCC#N)C3)n2)cc1NC(=O)c1cnn2ccccc12 [Example 186, N-(5-(2-(1-((4-cyanobutyl)sulfonyl)azetidin-3-yl)-2H-tetrazol-5-yl)-2-methylphenyl)pyrazolo[1,5-a]pyridine-3-carboxamide] | 103
8 | Cc1ccc(-n2nnc(C3CN(S(C)(=O)=O)C3)n2)cc1NC(=O)c1cnn2ccccc12 [Example 190] | 22.8
9 | CC(C)(O)Cn1cc(-c2ccn3ncc(C(=O)Nc4cc(-n5nnc(C6CC6)n5)ccc4Cl)c3c2)cn1 [Example 216, N-(2-chloro-5-(5-cyclopropyl-2H-tetrazol-2-yl)phenyl)-5-(1-(2-hydroxy-2-methylpropyl)-1H-pyrazol-4-yl)pyrazolo[1,5-a]pyridine-3-carboxamide] | 2.4
10 | COC(=O)N1CC(n2nnc(-c3ccc(C)c(NC(=O)c4cnn5ccc(NC[C@H](C)OC)cc45)c3)n2)C1 [Example 134, methyl (S)-3-(5-(3-(5-((2-methoxypropyl)amino)pyrazolo[1,5-a]pyridine-3-carboxamido)-4-methylphenyl)-2H-tetrazol-2-yl)azetidine-1-carboxylate] | 32.4
11 | Cc1cc(F)c(-c2nnn(C3CC3)n2)cc1NC(=O)c1cnn2ccc(-c3c(C)nn(C[C@H](C)O)c3C)cc12 [Example 254, (S)-N-(5-(2-cyclopropyl-2H-tetrazol-5-yl)-4-fluoro-2-methylphenyl)-5-(1-(2-hydroxypropyl)-3,5-dimethyl-1H-pyrazol-4-yl)pyrazolo[1,5-a]pyridine-3-carboxamide] | 0.4
12 | COC[C@@](C)(O)Cn1cc(-c2ccn3ncc(C(=O)Nc4cc(-c5nnn(C6CC6)n5)c(F)cc4C)c3c2)c(C)n1 (single isomer, unassigned) [Example 249, (S)-N-(5-(2-cyclopropyl-2H-tetrazol-5-yl)-4-fluoro-2-methylphenyl)-5-(1-(2-hydroxy-3-methoxy-2-methylpropyl)-3-methyl-1H-pyrazol-4-yl)pyrazolo[1,5-a]pyridine-3-carboxamide or (R)-N-(5-(2-cyclopropyl-2H-tetrazol-5-yl)-4-fluoro-2-methylphenyl)-5-(1-(2-hydroxy-3-methoxy-2-methylpropyl)-3-methyl-1H-pyrazol-4-yl)pyrazolo[1,5-a]pyridine-3-carboxamide] | 0.7
13 | Cc1ccc(-c2nnn(C3CN(S(=O)(=O)CC4CCC4)C3)n2)cc1NC(=O)c1cnn2ccccc12 [Example 180, N-(5-(2-(1-((cyclobutylmethyl)sulfonyl)azetidin-3-yl)-2H-tetrazol-5-yl)-2-methylphenyl)pyrazolo[1,5-a]pyridine-3-carboxamide] | 13.4
14 | COC(=O)N1CC(n2nnc(-c3ccc(C)c(NC(=O)c4cnn5ccc(N6CCC[C@@H](O)C6)cc45)c3)n2)C1 [Example 71, methyl (R)-3-(5-(3-(5-(3-hydroxypiperidin-1-yl)pyrazolo[1,5-a]pyridine-3-carboxamido)-4-methylphenyl)-2H-tetrazol-2-yl)azetidine-1-carboxylate] | 41.6
15 | CCn1nnc(-c2cc(NC(=O)c3cnn4ccc(-c5cn(CC(C)(C)O)nc5C)cc34)c(Cl)cc2F)n1 [Example 265, N-(2-chloro-5-(2-ethyl-2H-tetrazol-5-yl)-4-fluorophenyl)-5-(1-(2-hydroxy-2-methylpropyl)-3-methyl-1H-pyrazol-4-yl)pyrazolo[1,5-a]pyridine-3-carboxamide] | 0.8
16 | [2H]C([2H])([2H])OCCNc1ccn2ncc(C(=O)Nc3cc(-c4nnn(C5CN(C(=O)OC)C5)n4)ccc3C)c2c1 [Example 100, methyl 3-(5-(3-(5-((2-(methoxy-d3)ethyl)amino)pyrazolo[1,5-a]pyridine-3-carboxamido)-4-methylphenyl)-2H-tetrazol-2-yl)azetidine-1-carboxylate] | 33.8
17 | Cc1ccc(-c2nnn(CCCC(F)(F)F)n2)cc1NC(=O)c1cnn2ccccc12 [Example 1, N-(2-methyl-5-(2-(4,4,4-trifluorobutyl)-2H-tetrazol-5-yl)phenyl)pyrazolo[1,5-a]pyridine-3-carboxamide] | 3.8
18 | Cc1ccc(-n2nnc([C@H]3CC3(F)F)n2)cc1NC(=O)c1cnn2ccc(-c3cnn(CCO)c3)cc12 (single isomer, unassigned) [Example 211, (R)-N-(5-(5-(2,2-difluorocyclopropyl)-2H-tetrazol-2-yl)-2-methylphenyl)-5-(1-(2-hydroxyethyl)-1H-pyrazol-4-yl)pyrazolo[1,5-a]pyridine-3-carboxamide or (S)-N-(5-(5-(2,2-difluorocyclopropyl)-2H-tetrazol-2-yl)-2-methylphenyl)-5-(1-(2-hydroxyethyl)-1H-pyrazol-4-yl)pyrazolo[1,5-a]pyridine-3-carboxamide] | 2.6
19 | COCCOCCS(=O)(=O)N1CC(n2nnc(-c3ccc(C)c(NC(=O)c4cnn5ccccc45)c3)n2)C1 [Example 185, N-(5-(2-(1-((2-(2-methoxyethoxy)ethyl)sulfonyl)azetidin-3-yl)-2H-tetrazol-5-yl)-2-methylphenyl)pyrazolo[1,5-a]pyridine-3-carboxamide] | 161
20 | COC(=O)N1CC(n2nnc(-c3ccc(C)c(NC(=O)c4cnn5ccccc45)c3)n2)C1 [Example 191, methyl 3-(5-(4-methyl-3-(pyrazolo[1,5-a]pyridine-3-carboxamido)phenyl)-2H-tetrazol-2-yl)azetidine-1-carboxylate] | 41.3
21 | Cc1nn(C[C@H](O)CO)c(C)c1-c1ccn2ncc(C(=O)Nc3cc(-c4nnn(C5CC5)n4)ccc3Cl)c2c1 [Example 275, (S)-N-(2-chloro-5-(2-cyclopropyl-2H-tetrazol-5-yl)phenyl)-5-(1-(2,3-dihydroxypropyl)-3,5-dimethyl-1H-pyrazol-4-yl)pyrazolo[1,5-a]pyridine-3-carboxamide] | 0.1
22 | COCCNc1ccn2ncc(C(=O)Nc3cc(-c4nnn(C[C@@H]5CC5(F)F)n4)ccc3C)c2c1 (single isomer, unassigned) [Example 123, (S)-N-(5-(2-((2,2-difluorocyclopropyl)methyl)-2H-tetrazol-5-yl)-2-methylphenyl)-5-((2-methoxyethyl)amino)pyrazolo[1,5-a]pyridine-3-carboxamide or (R)-N-(5-(2-((2,2-difluorocyclopropyl)methyl)-2H-tetrazol-5-yl)-2-methylphenyl)-5-((2-methoxyethyl)amino)pyrazolo[1,5-a]pyridine-3-carboxamide] | 3.4
23 | COC(=O)N1CC(n2nnc(-c3ccc(C)c(NC(=O)c4cnn5ccc(OCCO)cc45)c3)n2)C1 [Example 199, methyl 3-(5-(3-(5-(2-hydroxyethoxy)pyrazolo[1,5-a]pyridine-3-carboxamido)-4-methylphenyl)-2H-tetrazol-2-yl)azetidine-1-carboxylate] | 29.6
24 | CCOC(=O)N1CC(n2nnc(-c3ccc(C)c(NC(=O)c4cnn5ccc(N6CCOCC6)cc45)c3)n2)C1 [Example 77, ethyl 3-(5-(4-methyl-3-(5-morpholinopyrazolo[1,5-a]pyridine-3-carboxamido)phenyl)-2H-tetrazol-2-yl)azetidine-1-carboxylate] | 60.7
25 | Cc1ccc(-c2nnn(C3CN(S(=O)(=O)CCOCC(F)F)C3)n2)cc1NC(=O)c1cnn2ccccc12 [Example 176, N-(5-(2-(1-((2-(2,2-difluoroethoxy)ethyl)sulfonyl)azetidin-3-yl)-2H-tetrazol-5-yl)-2-methylphenyl)pyrazolo[1,5-a]pyridine-3-carboxamide] | 47.9
26 | O=C(Nc1cc(-c2nnn(C3CC(F)(F)C3)n2)c(F)cc1Cl)c1cnn2ccc(N3CCOCC3)cc12 [Example 63, N-(2-chloro-5-(2-(3,3-difluorocyclobutyl)-2H-tetrazol-5-yl)-4-fluorophenyl)-5-morpholinopyrazolo[1,5-a]pyridine-3-carboxamide] | 10.5
